Results from patent US20050107386A1, “Methods of treating diseases and disorders by targeting multiple kinases” (priority 2003, published 2005).

Assays:
cSRC(h) = cSRC(h) (Homo sapiens, UniProt P12931); assay: cSRC(h) kinase assay; format: biochemical; details: for Inhibitory activity (% of control), cSRC(h): 3 μM, percent of control kinase activity
Procedure: (§1) Six compounds (presumptive single agents) were tested against a panel of 50 kinases. The results are presented in Table 2; numbers for each kinase indicate the percent of control kinase activity in the presence of a 3μM concentration of the indicated agent.
(§2) Agents that target two or more different kinases are useful in the methods of the invention as described elsewhere herein. Such compounds may be identified, and their effect on certain kinases may be identified, using the assays briefly described below in Examples 4-83. Each of these assays was carried out as described in Davies et al., Biochem. J., 351:95-105 (2000). All assays were carried out at 10 μM ATP unless otherwise noted.
In a final reaction volume of 25 μl, cSRC (h) (5-10 mU) is incubated with 8 mM MOPS pH 7.0, 0.2 mM EDTA, 250 μM […] (Cdc2 peptide; SEQ ID NO:7), 10 mM MgAcetate and [γ-^33P-ATP] (Specific activity approx. 500 cpm/pmol, concentration as required). The reaction is initiated by the addition of Mg^2+ [γ-^33P-ATP]. After incubation for 40 minutes at room temperature, the reaction is stopped by the addition of 5 μl of a 3% phosphoric acid solution. 10 μl of the reaction is then spotted onto a P30 filtermat and washed three times for 5 minutes in 75 mM phosphoric acid and once in methanol prior to drying and scintillation counting.

IR(h) = IR(h) (Homo sapiens, UniProt P06213); assay: IR(h) kinase assay; format: biochemical; details: 3 μM; percent of control kinase activity
Procedure: as §1, §2
In a final reaction volume of 25 μl, IR (h) (5-10 mU) is incubated with 50 mM Tris pH 7.5, 0.1 mM EGTA, 0.1 mM NaVanadate, 0.1% β-mercaptoethanol, 250 μM […] (SEQ ID NO: 15), 10 mM MnCl2, 10 mM MgAcetate and [γ-^33P-ATP] (Specific activity approx. 500 cpm/pmol, concentration as required). The reaction is initiated by the addition of Mg^2+ [γ-^33P-ATP]. After incubation for 40 minutes at room temperature, the reaction is stopped by the addition of 5 μl of a 3% phosphoric acid solution. 10 μl of the reaction is then spotted onto a P30 filtermat and washed three times for 5 minutes in 75 mM phosphoric acid and once in methanol prior to drying and scintillation counting.

[1] = system: cancer cell lines: non-small cell lung (NSCLC); colon; pancreatic; head and neck; breast and ovarian cancers; assay: Antiproliferative activity against a broad spectrum of cancer cell lines; format: cell-based; details: each of the cancer cell line types
From the text: (§3) CC001 is a low molecular weight mixed kinase inhibitor (MKI) with potent in vitro inhibitory activity against a variety of kinases.

colon and lung tumors = assay: SCID mice bearing colon and lung tumors; format: in vivo, mouse; details: 10 mg/kg to 20mg/kg twice a day, single agent
Procedure: SCID mice bearing colon and lung tumors were treated with CC001 at a concentration of 10 mg/kg to 20mg/kg, administered twice a day.

NCI-H460 NSCLC xenograft = NCI-H460 NSCLC xenograft model; format: in vivo; details: CC001 combined with the maximum tolerated dose of Taxotere
Procedure: A similar study was performed using an NCI-H460 NSCLC xenograft model in which CC001 was combined with the maximum tolerated dose of Taxotere (an anti-cancer compound related to taxol). […]. […]

cancer cell lines = assay: In vitro combination studies with standard chemotherapeutic agents and signal transduction inhibitors; format: cell-based; details: with standard chemotherapeutic agents such as taxol, and novel signal transduction inhibitors
From the text: as §3

[2] = system: HCT-116 colon cancer cells; assay: Activation of kinases and their downstream targets in HCT-116 cells; format: cell-based; details: concentration-dependent
From the text: as §3

HCT-116 cells = assay: SCID mouse/HCT-116 xenograft model; details: for % Tumor Growth Inhibition / T/C (ratio of mean tumor volume for treated vs. vehicle control) / Tumor Volume: day 28; for Tumor Volume: mean ± SEM
Procedure: In one experiment, female CB.17 SCID mice were inoculated subcutaneously in the right hind limb with 2×10^6 HCT-116 cells. […] Treatment commenced on day 8 and proceeded for the duration of the study. All the compound treatments were given i.p. in a vehicle NPS in a volume of 5 ml/kg. […] The tumor volumes were measured twice a week using calipers. Values are mean±SEM. Statistical analysis was performed using ANOVA.
Female CB.17 SCID mice were inoculated subcutaneously in the right hind limb with 2×10^6 HCT-116 cells. […] Treatment commenced on day 8 and proceeded for the duration of the study. All the treatments were given i.p. in a vehicle NPS in a volume of 5 ml/kg.
Female CB.17 SCID mice were inoculated subcutaneously in the right hind limb with 2×10^6 HCT-116 cells. […] Treatment commenced on day 8 and proceeded for the duration of the study. All the compound treatments were given i.p. in a vehicle NPS in a volume of 5 ml/kg. […] The tumor volumes were measured twice a week using calipers.

[3] = CC001 with Camptosar, model not named
[4] = Table 4, i.p. 20 mg/kg b.i.d. (b.i.d. day 8-11, then qd)

Chain of IR(h) (P06213 28-1382): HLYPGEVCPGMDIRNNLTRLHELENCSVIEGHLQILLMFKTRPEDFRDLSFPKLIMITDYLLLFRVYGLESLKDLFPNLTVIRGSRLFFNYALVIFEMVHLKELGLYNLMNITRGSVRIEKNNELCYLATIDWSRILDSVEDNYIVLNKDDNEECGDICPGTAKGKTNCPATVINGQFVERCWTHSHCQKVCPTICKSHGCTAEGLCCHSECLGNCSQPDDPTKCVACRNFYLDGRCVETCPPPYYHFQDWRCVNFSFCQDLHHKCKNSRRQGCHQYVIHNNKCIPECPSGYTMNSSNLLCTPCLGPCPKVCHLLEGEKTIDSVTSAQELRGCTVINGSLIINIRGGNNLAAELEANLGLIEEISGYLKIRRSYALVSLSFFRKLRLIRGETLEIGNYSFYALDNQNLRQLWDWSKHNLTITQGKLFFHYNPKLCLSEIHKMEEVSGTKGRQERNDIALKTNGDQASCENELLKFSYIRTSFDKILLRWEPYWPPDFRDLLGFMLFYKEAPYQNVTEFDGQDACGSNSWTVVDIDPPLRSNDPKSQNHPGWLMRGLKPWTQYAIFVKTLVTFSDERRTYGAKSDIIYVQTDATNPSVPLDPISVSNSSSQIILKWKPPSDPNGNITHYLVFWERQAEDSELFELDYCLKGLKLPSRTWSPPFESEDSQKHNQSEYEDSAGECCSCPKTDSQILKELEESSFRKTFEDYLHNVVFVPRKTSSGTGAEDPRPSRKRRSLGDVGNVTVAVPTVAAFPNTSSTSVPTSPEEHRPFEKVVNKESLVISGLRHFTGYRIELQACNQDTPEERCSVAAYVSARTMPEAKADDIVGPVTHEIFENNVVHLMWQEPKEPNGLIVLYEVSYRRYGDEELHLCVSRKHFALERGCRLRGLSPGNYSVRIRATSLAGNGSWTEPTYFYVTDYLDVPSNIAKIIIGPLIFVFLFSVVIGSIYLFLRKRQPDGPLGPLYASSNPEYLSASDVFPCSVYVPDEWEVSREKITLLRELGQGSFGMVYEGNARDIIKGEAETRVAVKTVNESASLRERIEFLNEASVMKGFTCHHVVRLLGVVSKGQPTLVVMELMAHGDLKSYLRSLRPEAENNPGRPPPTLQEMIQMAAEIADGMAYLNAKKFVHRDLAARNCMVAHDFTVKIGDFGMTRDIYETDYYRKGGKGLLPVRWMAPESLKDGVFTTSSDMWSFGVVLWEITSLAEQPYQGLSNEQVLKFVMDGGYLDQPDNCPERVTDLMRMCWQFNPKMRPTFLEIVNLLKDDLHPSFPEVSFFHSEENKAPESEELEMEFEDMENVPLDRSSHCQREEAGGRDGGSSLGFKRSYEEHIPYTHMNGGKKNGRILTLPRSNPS
Chain of cSRC(h) (P12931 whole entry): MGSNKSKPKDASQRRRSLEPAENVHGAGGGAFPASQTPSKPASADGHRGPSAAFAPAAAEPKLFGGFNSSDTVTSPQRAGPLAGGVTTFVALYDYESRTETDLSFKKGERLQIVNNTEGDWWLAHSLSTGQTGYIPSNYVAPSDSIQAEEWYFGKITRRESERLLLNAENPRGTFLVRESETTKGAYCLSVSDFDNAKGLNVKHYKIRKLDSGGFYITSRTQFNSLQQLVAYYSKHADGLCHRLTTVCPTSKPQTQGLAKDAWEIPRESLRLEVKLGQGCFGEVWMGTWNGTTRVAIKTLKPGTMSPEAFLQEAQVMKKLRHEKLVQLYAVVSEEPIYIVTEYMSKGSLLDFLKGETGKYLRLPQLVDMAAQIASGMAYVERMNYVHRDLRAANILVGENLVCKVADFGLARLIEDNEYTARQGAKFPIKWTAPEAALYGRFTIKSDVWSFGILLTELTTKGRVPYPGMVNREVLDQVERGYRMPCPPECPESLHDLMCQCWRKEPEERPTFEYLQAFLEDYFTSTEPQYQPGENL

In the case of `CCN1CCC[C@H]1COc1ccc2cc(-c3n[nH]c4ccc(-c5nc(CC(C)(C)C)n[nH]5)cc34)ccc2c1` [CC005, 2-[((2s)-1-ethylpyrrolidin-2-yl)methoxy]-6-{5-[3-(2,2-Dimethylpropyl)(1H-1,2,4,-triazol-5-yl)](1H-indazol-3-yl)}naphthalene], the “Inhibitory activity (% of control), cSRC(h)” value (cSRC(h)) is reported as 3 % of control and the “Inhibitory activity (% of control), IR(h)” value (IR(h)) is reported as 31 % of control.

`COc1ccc2cc(-c3n[nH]c4ccc(-c5n[nH]c(CN6CCOCC6)n5)cc34)ccc2c1` [CC001, 3-(6-Methoxynaphthalen-2-yl)-5-(5-Morpholin-4-Ylmethyl-1H-[1,2,4]Triazol-3-yl)-1H-Indazole] was tested, and the “Inhibitory activity (% of control), cSRC(h)” value (cSRC(h)) was 2 % of control, the “antiproliferative activity, IC50 values” [1] was “nanomolar range” and the T/C ratio (colon and lung tumors) was 40-60%. The “tumor growth, in words” value (colon and lung tumors) was “inhibited tumor growth in a dose-dependent manner”, the “Inhibitory activity (% of control), IR(h)” value (IR(h)) was 74 % of control and the T/C ratio (NCI-H460 NSCLC xenograft) was 16-28%. For the same compound, the “additional toxicity as evidenced by weight loss” value (NCI-H460 NSCLC xenograft) was “No apparent additional toxicity”, the “antiproliferative activity in combination” value (cancer cell lines) was “additive and/or synergistic antiproliferative activity” and the “activation of kinases and their downstream targets” value [2] was “inhibited the activation of kinases and their downstream targets”. For the same compound, the “effect on tumor development, in words” value (HCT-116 cells; CC001 at 20 mg/kg administered with 2.5 mg/kg Camptosar) was “equivalent to an administration of Camptosar alone at 10 mg/kg”, the T/C ratio (HCT-116 cells; [3]) was roughly 15% and the “in vivo effects in combination, in words” value (HCT-116 cells; [3]) was “Additive in vivo effects”. The “TGD (days to reach 1000 mm^3)” value (HCT-116 cells; Table 3, i.p. 20 mg/kg b.i.d.) was greater than 12 days, the “% Tumor Growth Inhibition” value (HCT-116 cells; Table 3, i.p. 20 mg/kg b.i.d.) was 69.6% and the “T/C (ratio of mean tumor volume for treated vs. vehicle control)” value (HCT-116 cells; Table 3, i.p. 20 mg/kg b.i.d.) was 32. The “Tumor Volume” value (HCT-116 cells; Table 3, i.p. 20 mg/kg b.i.d.) was 798.3 ± 71.1^e mm^3, the “% Tumor Growth Inhibition” value (HCT-116 cells; Table 5, i.p. 20 mg/kg b.i.d.) was 69% and the “T/C (ratio of mean tumor volume for treated vs. vehicle control)” value (HCT-116 cells; Table 5, i.p. 20 mg/kg b.i.d.) was 34. For the same compound, the “Tumor Volume” value (HCT-116 cells; Table 5, i.p. 20 mg/kg b.i.d.) was 752.5 ± 66.6^e mm^3, the “TGD (500 mm^3)” value (HCT-116 cells; Table 5, i.p. 20 mg/kg b.i.d., days to reach 500 mm^3) was greater than 7 days and the “TGD (1000 mm^3)” value (HCT-116 cells; Table 5, i.p. 20 mg/kg b.i.d., days to reach 1000 mm^3) was greater than 10 days. The “tumor mass over the course of the experiment, in words” value (HCT-116 cells; i.p. 20 mg/kg b.i.d., P<0.001 compared to vehicle control) was “significantly smaller tumor mass”.

In the case of `CC(C)(C)Cc1nc(-c2ccc3[nH]nc(-c4ccc5cc(OCc6ccccn6)ccc5c4)c3c2)n[nH]1` [CC004, 5-[5-(2,2-Dimethyl-propyl)-1H-[1,2,4]triazol-3-yl]-3-[6-(pyridine-2-ylmethoxy)-naphthalen-2-yl]-1H-indazole], the “Inhibitory activity (% of control), cSRC(h)” value (cSRC(h)) is reported as 67 % of control, the “inhibitory activity against cSrc, in words” value (cSRC(h); summary of Table 2) is reported as “somewhat less inhibitory activity” and the “Inhibitory activity (% of control), IR(h)” value (IR(h)) is reported as 89 % of control.

For `CC(C)Cc1nc(-c2ccc3[nH]nc(-c4ccc5cc(OCCN6CCCC6)ccc5c4)c3c2)n[nH]1` [CC002, 5-(5-Isobutyl-1H-[1,2,4]Triazol-3-yl)-3-[6-(2-Pyrrolidin-1-yl-Ethoxy)-Naphthalen-2-yl]-1H-Indazole], the “TGD (days to reach 1000 mm^3)” value (HCT-116 cells; [4]) was greater than 12 days, the “% Tumor Growth Inhibition” value (HCT-116 cells; [4]) was 68% and the “T/C (ratio of mean tumor volume for treated vs. vehicle control)” value (HCT-116 cells; [4]) was 35. For the same compound, the “Tumor Volume” value (HCT-116 cells; [4]) was 792.8 ± 86.5^e mm^3 and the “tumor volumes over the course of the experiment, in words” value (HCT-116 cells; i.p. 20 mg/kg b.i.d. day 8-11, then qd, P<0.001 vs vehicle control) was “reduced tumor volumes”.
